The results in this text go back to patent publication US20260167620A1, “MULTIFUNCTIONAL COMPOUND CAPABLE OF DEGRADING BTK KINASE, AND COMPOSITION AND USE” (HANGZHOU HEALZEN THERAPEUTICS CO., LTD., priority 2021, published 2026).

The target in this assay is T1, BTK (Homo sapiens, UniProt Q06187).
T1 construct: endogenous in cells; host or cells: Mino cells
T1 sequence (Q06187 whole entry): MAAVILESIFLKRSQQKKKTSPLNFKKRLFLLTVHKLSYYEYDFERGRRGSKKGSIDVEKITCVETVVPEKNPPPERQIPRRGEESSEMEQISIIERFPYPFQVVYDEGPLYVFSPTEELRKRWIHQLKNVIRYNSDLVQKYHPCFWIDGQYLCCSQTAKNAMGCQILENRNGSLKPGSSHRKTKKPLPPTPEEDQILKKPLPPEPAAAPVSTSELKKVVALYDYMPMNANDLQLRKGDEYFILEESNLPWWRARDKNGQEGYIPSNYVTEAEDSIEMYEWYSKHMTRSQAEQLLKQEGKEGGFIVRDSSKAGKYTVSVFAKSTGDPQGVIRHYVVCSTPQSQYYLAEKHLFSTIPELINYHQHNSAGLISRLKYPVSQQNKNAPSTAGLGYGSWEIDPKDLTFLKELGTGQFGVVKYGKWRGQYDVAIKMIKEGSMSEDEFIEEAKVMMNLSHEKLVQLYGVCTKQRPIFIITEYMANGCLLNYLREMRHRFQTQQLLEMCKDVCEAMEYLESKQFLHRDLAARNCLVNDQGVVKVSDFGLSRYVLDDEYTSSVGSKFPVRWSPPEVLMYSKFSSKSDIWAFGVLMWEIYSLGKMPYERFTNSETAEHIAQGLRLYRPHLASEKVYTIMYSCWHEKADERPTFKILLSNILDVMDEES
As to the kind of experiment: BTK degradation activity test in Mino cells (Westernblot or Elisa). Format: cell-based. The settings on record: 24-72 h incubation. On the procedure: The Mino cell line cells are 0.5˜1 million/well in 6-well plates. The compounds are diluted to different concentrations, added to the plate, and after 24-72 h of incubation, the cells are collected. After the cells were lysed, the total protein concentration in each well was determined with a BCA kit. The amount of BTK is determined using the Westernblot or Elisa method.
With `NC(=O)c1cnc(N2CCCCC2)nc1Nc1ccc(C2CCN(CC3CCN(c4ccc5c(c4)C(=O)N(C4CCC(=O)NC4=O)C5=O)C3)CC2)c(F)c1` (stereo not drawn) [Compound 036, 4-((4-(1-((1-(2-(2,6-dioxopiperidin-3-yl)-1,3-dioxoisoindolin-5-yl)pyrrolidin-3-yl)methyl)piperidin-4-yl)-3-fluorophenyl)amino)-2-(piperidin-1-yl) pyrimidine-5-carboxamide], the DC50 was less than 0.01 µM.
For `NC(=O)c1cnc(N2CCCCC2)cc1Nc1ccc(N2CCN(CC3CCN(c4ccc5c(c4)C(=O)N(C4CCC(=O)NC4=O)C5=O)C3)CC2)c(F)c1` (stereo not drawn) [Compound 037, 4-((4-(4-((1-(2-(2,6-dioxopiperidin-3-yl)-1,3-dioxoisoindolin-5-yl)pyrrolidin-3-yl)methyl)piperazin-1-yl)-3-fluorophenyl)amino)-6-(piperidin-1-yl) nicotinamide] the value was less than 0.01 µM; for `NC(=O)c1cnc(N2CCCCC2)cc1Nc1ccc(C2CCN(CC3CCN(c4ccc5c(c4)C(=O)N(C4CCC(=O)NC4=O)C5=O)C3)CC2)cc1` (stereo not drawn) [Compound 038, 4-((4-(1-((1-(2-(2,6-dioxopiperidin-3-yl)-1,3-dioxoisoindolin-5-yl)pyrrolidin-3-yl)methyl)piperidin-4-yl)phenyl)amino)-6-(piperidin-1-yl) nicotinamide], less than 0.01 µM.
For `Cc1nc(C(N)=O)c(Nc2ccc(C3CCN(CC4CCN(c5ccc6c(c5)C(=O)N(C5CCC(=O)NC5=O)C6=O)C4)CC3)cc2)nc1N1CCCCC1` (stereo not drawn) [Compound 039, 3-((4-(1-((1-(2-(2,6-dioxopiperidin-3-yl)-1,3-dioxoisoindolin-5-yl)pyrrolidin-3-yl)methyl)piperidin-4-yl)phenyl)amino)-6-methyl-5-(piperidin-1-yl) pyrazine-2-carboxamide] the value was less than 0.01 µM; for `NC(=O)c1nnc(N2CCCCC2)cc1Nc1ccc(C2CCN(CC3CCN(c4ccc5c(c4)C(=O)N(C4CCC(=O)NC4=O)C5=O)C3)CC2)cc1` (stereo not drawn) [Compound 040, 4-((4-(1-((1-(2-(2,6-dioxopiperidin-3-yl)-1,3-dioxoisoindolin-5-yl)pyrrolidin-3-yl)methyl)piperidin-4-yl)phenyl)amino)-6-(piperidin-1-yl) pyridazine-3-carboxamide], less than 0.01 µM; for `NC(=O)c1nnc(N2CCC[C@@H](O)C2)cc1Nc1ccc(C2CCN(CC3CCN(c4ccc5c(c4)C(=O)N(C4CCC(=O)NC4=O)C5=O)C3)CC2)cc1` (stereo partly drawn) [Compound 041, 4-((4-(1-((1-(2-(2,6-dioxopiperidin-3-yl)-1,3-dioxoisoindolin-5-yl)pyrrolidin-3-yl)methyl)piperidin-4-yl)phenyl)amino)-6-((R)-3-hydroxypiperidin-1-yl) pyridazine-3-carboxamide], less than 0.01 µM.
The same measure for `NC(=O)c1nc(F)c(N2CCCCC2)nc1Nc1ccc(C2CCN(CC3CCN(c4ccc5c(c4)C(=O)N(C4CCC(=O)NC4=O)C5=O)C3)CC2)cc1` (stereo not drawn) [Compound 042, 3-((4-(1-((1-(2-(2,6-dioxopiperidin-3-yl)-1,3-dioxoisoindolin-5-yl)pyrrolidin-3-yl)methyl)piperidin-4-yl)phenyl)amino)-6-fluoro-5-(piperidin-1-yl) pyrazine-2-carboxamide]: less than 0.01 µM; for `COc1nc(C(N)=O)c(Nc2ccc(C3CCN(CC4CCN(c5ccc6c(c5)C(=O)N(C5CCC(=O)NC5=O)C6=O)C4)CC3)cc2)nc1N1CCCCC1` (stereo not drawn) [Compound 043, 3-((4-(1-((1-(2-(2,6-dioxopiperidin-3-yl)-1,3-dioxoisoindolin-5-yl)pyrrolidin-3-yl)methyl)piperidin-4-yl)phenyl)amino)-6-methoxy-5-(piperidin-1-yl) pyrazine-2-carboxamide]: less than 0.01 µM.
The molecule `CN1CCN(c2nnc(C(N)=O)c(Nc3ccc(N4CCC(CN5CCN(c6ccc(N7CCC(=O)NC7=O)cc6)CC5)CC4)nc3)n2)CC1` [Compound 047, 5-((6-(4-((4-(4-(2,4-dioxotetrahydropyrimidin-1(2H)-yl)phenyl)piperazin-1-yl)methyl)piperidin-1-yl)pyridin-3-yl)amino)-3-(4-methylpiperazin-1-yl)-1,2,4-triazine-6-carboxamide] yielded a 50% degradation concentration (DC50) of less than 0.01 µM.
For `NC(=O)c1nnc(N2CCCCC2)nc1Nc1ccc(N2CC(CN3CCN(c4ccc5c(c4)C(=O)N(C4CCC(=O)NC4=O)C5=O)CC3)C2)cc1` (stereo not drawn) [Compound 049, 5-((4-(3-((4-(2-(2,6-dioxopiperidin-3-yl)-1,3-dioxoisoindolin-5-yl)piperazin-1-yl)methyl)azetidin-1-yl)phenyl)amino)-3-(piperidin-1-yl)-1,2,4-triazine-6-carboxamide] the value was less than 0.01 µM; for `CN1CCN(c2nnc(C(N)=O)c(Nc3ccc(N4CCC(CN5CCN(c6ccc(N7CCC(=O)NC7=O)cc6)CC5)CC4)c(F)c3)n2)CC1` [Compound 054, 5-((4-(4-((4-(4-(2,4-dioxotetrahydropyrimidin-1(2H)-yl)phenyl)piperazin-1-yl)methyl)piperidin-1-yl)-3-fluorophenyl)amino)-3-(4-methylpiperazin-1-yl)-1,2,4-triazine-6-carboxamide], less than 0.01 µM; for `NC(=O)c1nnc(N2CCCCC2)nc1Nc1ccc(C2CCN(C(=O)C3CCN(c4ccc5c(c4)C(=O)N(C4CCC(=O)NC4=O)C5=O)C3)CC2)cc1` (stereo not drawn) [Compound 055, 5-((4-(1-(1-(2-(2,6-dioxopiperidin-3-yl)-1,3-dioxoisoindolin-5-yl)pyrrolidine-3-carbonyl)piperidin-4-yl)phenyl)amino)-3-(piperidin-1-yl)-1,2,4-triazine-6-carboxamide], less than 0.01 µM.
With `NC(=O)c1nnc(N2CCCCC2)nc1Nc1ccc(N2CCN(C(=O)C3CCN(c4ccc5c(c4)C(=O)N(C4CCC(=O)NC4=O)C5=O)C3)CC2)cc1` (stereo not drawn) [Compound 056, 5-((4-(4-(1-(2-(2,6-dioxopiperidin-3-yl)-1,3-dioxoisoindolin-5-yl)pyrrolidine-3-carbonyl)piperazin-1-yl)phenyl)amino)-3-(piperidin-1-yl)-1,2,4-triazine-6-carboxamide], the DC50 was less than 0.01 µM.
The same measure for `NC(=O)c1nnc(N2CCCCC2)nc1Nc1ccc(C2CCN(C(=O)C3CCN(c4ccc5c(c4)C(=O)N(C4CCC(=O)NC4=O)C5=O)CC3)CC2)cc1` (stereo not drawn) [Compound 057, 5-((4-(1-(1-(2-(2,6-dioxopiperidin-3-yl)-1,3-dioxoisoindolin-5-yl)piperidine-4-carbonyl)piperidin-4-yl)phenyl)amino)-3-(piperidin-1-yl)-1,2,4-triazine-6-carboxamide]: less than 0.01 µM; for `NC(=O)c1nnc(N2CCCCC2)nc1Nc1ccc(N2CCN(C(=O)C3CCN(c4ccc5c(c4)C(=O)N(C4CCC(=O)NC4=O)C5=O)CC3)CC2)cc1` (stereo not drawn) [Compound 058, 5-((4-(4-(1-(2-(2,6-dioxopiperidin-3-yl)-1,3-dioxoisoindolin-5-yl)piperidine-4-carbonyl)piperazin-1-yl)phenyl)amino)-3-(piperidin-1-yl)-1,2,4-triazine-6-carboxamide]: less than 0.01 µM; for `NC(=O)c1nnc(N2CCCCC2)nc1Nc1ccc(N2CCC(C(=O)N3CCN(c4ccc5c(c4)C(=O)N(C4CCC(=O)NC4=O)C5=O)CC3)CC2)cc1` (stereo not drawn) [Compound 060, 5-((4-(4-(4-(2-(2,6-dioxopiperidin-3-yl)-1,3-dioxoisoindolin-5-yl)piperazine-1-carbonyl)piperidin-1-yl)phenyl)amino)-3-(piperidin-1-yl)-1,2,4-triazine-6-carboxamide]: less than 0.01 µM.
For `NC(=O)c1nnc(N2CCCCC2)nc1Nc1ccc(N2CCN(C(=O)C3CN(c4ccc5c(c4)C(=O)N(C4CCC(=O)NC4=O)C5=O)C3)CC2)cc1` (stereo not drawn) [Compound 061, 5-((4-(4-(1-(2-(2,6-dioxopiperidin-3-yl)-1,3-dioxoisoindolin-5-yl)azetidine-3-carbonyl)piperazin-1-yl)phenyl)amino)-3-(piperidin-1-yl)-1,2,4-triazine-6-carboxamide] the value was less than 0.01 µM.
Molecule `CC(C)(C)C(=O)OCN1C(=O)CCC(N2C(=O)c3ccc(N4CCC(CN5CCC(c6ccc(Nc7nc(N8CCCCC8)nnc7C(N)=O)cc6)CC5)C4)cc3C2=O)C1=O` (stereo not drawn) [Compound 062, (3-(5-(3-((4-(4-((6-carbamoyl-3-(piperidin-1-yl)-1,2,4-triazin-5-yl)amino)phenyl)piperidin-1-yl)methyl)pyrrolidin-1-yl)-1,3-dioxoisoindolin-2-yl)-2,6-dioxopiperidin-1-yl) methyl pivalate] returned a 50% degradation concentration (DC50) of less than 0.01 µM.
For `CN1CCN(c2nnc(C(N)=O)c(Nc3ccc(C4CCN(CC5CCN(c6ccc7c(c6)C(=O)N(C6CCC(=O)N(COC(=O)C(C)(C)C)C6=O)C7=O)C5)CC4)cc3)n2)CC1` (stereo not drawn) [Compound 063, (3-(5-(3-((4-(4-((6-carbamoyl-3-(4-methylpiperazin-1-yl)-1,2,4-triazin-5-yl)amino)phenyl)piperidin-1-yl)methyl)pyrrolidin-1-yl)-1,3-dioxoisoindolin-2-yl)-2,6-dioxopiperidin-1-yl) methyl pivalate] the value was less than 0.01 µM; for `CC(C)(C)C(=O)OCN1C(=O)CCC(N2C(=O)c3ccc(N4CCC(CN5CCN(c6ccc(Nc7nc(N8CCCCC8)nnc7C(N)=O)cc6F)CC5)C4)cc3C2=O)C1=O` (stereo not drawn) [Compound 064, (3-(5-(3-((4-(4-((6-carbamoyl-3-(piperidin-1-yl)-1,2,4-triazin-5-yl)amino)-2-fluorophenyl)piperazin-1-yl)methyl)pyrrolidin-1-yl)-1,3-dioxoisoindolin-2-yl)-2,6-dioxopiperidin-1-yl) methyl pivalate], less than 0.01 µM; for `CC(C)(C)C(=O)OCN1C(=O)CCN(c2ccc(N3CCN(CC4CCN(c5ccc(Nc6nc(N7CCCCC7)nnc6C(N)=O)cc5F)CC4)CC3)cc2)C1=O` [Compound 066, (3-(4-(4-((1-(4-((6-carbamoyl-3-(piperidin-1-yl)-1,2,4-triazin-5-yl)amino)-2-fluorophenyl)piperidin-4-yl)methyl)piperazin-1-yl)phenyl)-2,6-dioxotetrahydropyrimidin-1(2H)-yl) methyl pivalate], less than 0.01 µM.

Usually DC50 stands for the concentration at which degradation of the target reaches its halfway point. A lower DC50 goes with degradation at low concentration.
